# Data taken from publication PMC5567253 (Scientific Reports, 2017).
# Like-named read-outs stand apart in the source and are kept apart here.
# How the values were obtained:
# MDA-MB-231 cells [1] = assay: Transwell invasion assay; format: cell-based, human; conditions: 20 μM, 24 h, normalized for cell viability
# Experimental: Cell invasion and migration were measured using Transwell and wound healing assays, respectively. For Transwell assays, 2 × 10^4 cells were suspended in serum-free media and seeded in the top chamber of Matrigel-coated invasion inserts (Corning life science, Corning, NY). BHX was then added to the top chambers. DMEM containing 10% FBS was added to the lower chamber as a chemoattractant. After 24 h incubation, the non-invading cells on the upper surface of the membrane were wiped away, and the invading cells on the lower surface of the membrane were fixed using 95% ethanol and stained with 0.1% crystal violet. Images were captured at ×200 magnification using an inverted phase contrast microscope (BX61, Olympus, Japan). In parallel, cells were treated identically in 24-well plate. These cells were harvested, stained with 0.1% crystal violet, and counted. The number of cells that had invaded was normalized for effects on cell viability. For wound healing assays, cells were seeded at 2 × 10^5 cells/well in 24-well culture plates and allowed to reach confluence. […] Images of the scratches were recorded at ×40 magnification using a phase contrast microscope (EVOS, AMG, USA) at 0 and 20 h. The areas between leading edges were measured using Image J software, after which the rates of wound healing were calculated.
# [2] = tested on: β-catenin protein in MDA-MB-231 cells; assay: Western blotting of β-catenin; format: cell-based, human
# Experimental: (§1) Total cell lysates were obtained by lysing the cells in SDS lysis buffer containing a protease inhibitor (PMSF), and protein concentrations were determined using a BCA protein assay kit. The proteins were separated by SDS-PAGE and transferred to PVDF membranes. The membranes were incubated with primary antibodies against Snail, Vimentin, β-catenin, and E-cadherin (1:1000 dilution) overnight at 4 °C, rinsed with TBST, and incubated with IRDye-conjugated anti-rabbit or anti-mouse IgG secondary antibodies (1:1000, LI-COR Biosciences). A β-actin-specific monoclonal antibody (1:1000 dilution) was used as a loading control. Bands were visualized with an Odyssey LI-COR infrared imaging system (LI-COR, Lincoln, NE).
# MDA-MB-231 cells [3] = assay: cells; conditions: Homo sapiens, read-out: IC50 of suppression of cell viability
# Experimental: After incubation, MTT solution (5 mg/ml, 20 μl per well) was added and incubated for 4 h. The culture media were then replaced with dimethyl sulfoxide (DMSO, 150 μl). […] The results are expressed as mean percentage of viable cells relative to untreated cells.
# [4] = In vivo pharmacokinetics in rat plasma (UPLC-MS/MS, NCA); parameters: species or system Sprague-Dawley (SD) rats; conditions: intraperitoneal; for Cmax / MRT last / Tmax / half-life / AUC(0-t): male, Sprague-Dawley, plasma, ip; for MRT last: read-out: MRT0-t
# Experimental: Male Sprague-Dawley (SD) rats (250 ± 50 g body weight) were purchased from Institute of Laboratory Animal Sciences, Peking Union Medical College (Beijing, China). Rats were housed in a light-controlled room at 25 ± 2 °C and 55 ± 5% relative humidity, at the Animal Center of Tianjin Medical University Cancer Institute and Hospital (Tianjin, China). Animals received a standard diet and water ad libitum. […] At 0, 10, 20, 30, 40 min, 1, 2, 3, 4, 6, 8, 10, 12, and 24 h post injection, blood samples were collected into heparinized glass tubes by direct venipuncture. Plasma was prepared from the blood by centrifugation at 13,000 rpm for 10 min at 4 °C and stored at −80 °C until further analysis.
# An ACQUITY™ ultra-performance liquid chromatography system connected to a Xevo triple quadrupole mass spectrometry system (Waters, MA, USA) equipped with an electrospray ionization (ESI) source was used in this study. Aliquots (50 μl) of plasma was vortex-mixed with methanol (400 μl) containing diazepam (internal standard, 200 ng/ml concentration) for 2 min and then centrifuged at 13,000 rpm at 4 °C for 10 min. Then, 400 μl of supernatant was transferred to a clean centrifuge tube and dried with an N2 gas stream. Samples were reconstituted with 100 μl methanol/H2O (50/50, v/v). The injection volume of the assay was 5 μl. The mobile phase (MP) was composed of MPA (acetonitrile) and MPB (5 mM ammonium formate with 0.1% formic acid in water), and the flow rate was maintained at 0.3 ml/min. […] A switching valve directed the flow eluting between 1.0–2.5 min into a mass spectrometer, and the remainder to a waste container. BHX and diazepam were ionized with ESI in the positive mode and fragmented with collision gas for analysis using multiple reaction monitoring (MRM). The ESI source settings for the analysis were as follows: 350 °C gas temperature; 650 L/h desolvation; 50 L/h cone; 2.5 kV capillary voltage. […] The data acquisition and processing were done using MassLynx Mass Spectrometry software, version 4.1 (Waters, MA, USA). The dwell time was 400 ms for all ion transitions monitored.
# HT29 = tested on: HT29; parameters: method as in PMID 24098916; conditions: cited from earlier work
# [5] = tested on: E-cadherin protein in MDA-MB-231 cells; assay: Western blotting of E-cadherin; format: cell-based, human; conditions: western blot
# Experimental: as §1
# [6] = tested on: Snail protein in MDA-MB-231 cells; assay: Western blotting of Snail; format: cell-based, human; conditions: western blot
# Experimental: as §1
# [7] = tested on: Snail expression in MDA-MB-231 cells; assay: PCR analysis of Snail expression; format: cell-based, human; conditions: 24 h
# Experimental: Total RNA from MDA-MB-231 cells was isolated using TRIzol (Life Technologies, USA). RNA samples were quantified using a NanoDrop 3300 spectrophotometer (Thermo Scientific, NanoDrop Products, Wilmington, DE, USA). Synthesis of cDNA was performed using a RevertAid First Strand cDNA Synthesis kit per manufacturer’s protocols (Thermo Scientific, USA). The reaction mixtures were heated at 95 °C for 10 min, followed by 30 cycles at 94 °C for 30 s, 58 °C for 30 s, 72 °C for 20 s, and a final extension at 72 °C for 5 min. Subsequently, PCR products were electrophoresed in a 1.5% agarose gel and scanned using a gel/fluorescence image analysis system. GAPDH was selected as a loading control to standardize the amount of cDNA from each sample.
# MGC803 = tested on: MGC803; parameters: method as in PMID 24098916; conditions: cited from earlier work
structure (smiles),measurement,setting,value
O=C(NCc1ccc(O)cc1)C1C(c2ccccc2)C(c2ccccc2)=NN1c1ccccc1 (centres unmarked) [BHX],reduction of invasive potential,MDA-MB-231 cells [1],48.38%
same,β-catenin expression by western blotting,[2],suppressed β-catenin expression in a concentration-dependent manner
same,IC50,"MDA-MB-231 cells [3]; MDA-MB-231, 24 h",28.1 µM
same,IC50,"MDA-MB-231 cells [3]; MDA-MB-231, 72 h",13.8 µM
same,CL,[4]; 50 μg/kg,0.028 ± 0.006 L/h/kg
same,Vd,[4]; 50 μg/kg,0.192 ± 0.047 L/kg
same,t1/2,[4]; 50 μg/kg,4.82 ± 0.93 h
same,CL,[4]; 100 μg/kg,0.043 ± 0.007 L/h/kg
same,Vd,[4]; 100 μg/kg,0.253 ± 0.062 L/kg
same,Cmax,[4]; 50 ug/kg,325 ± 55.1 ng/mL
same,MRT last,"[4]; 50 ug/kg, 50 μg/kg",6.8 ± 1.25 h
same,Tmax,"[4]; 50 ug/kg, 50 μg/kg, read-out: Tmax",5.37 ± 1.16 h
same,half-life,"[4]; 50 ug/kg, 50 μg/kg, read-out: elimination half-life in plasma (converted)",289 ± 55.8 min
same,AUC(0-t),"[4]; 50 ug/kg, first AUC0-t line",1770 ± 325 ng·h/mL
same,AUC(0-t),"[4]; 50 ug/kg, second AUC0-t line",1820 ± 287 ng·h/mL
same,Cmax,[4]; 100 ug/kg,405 ± 87.5 ng/mL
same,MRT last,"[4]; 100 ug/kg, 100 μg/kg",6.36 ± 1.32 h
same,Tmax,"[4]; 100 ug/kg, 100 μg/kg, read-out: Tmax",5.62 ± 1.38 h
same,half-life,"[4]; 100 ug/kg, 100 μg/kg, read-out: t1/2 (converted)",247 ± 48.6 min
same,AUC(0-t),"[4]; 100 ug/kg, first AUC0-t line",2300 ± 412 ng·h/mL
same,AUC(0-t),"[4]; 100 ug/kg, second AUC0-t line",2350 ± 303 ng·h/mL
same,Tmax,"[4]; Fig. 7c, read-out: time to peak plasma level post administration",~6 h
same,cytotoxic effects,HT29,exhibits cytotoxic effects
same,E-cadherin protein level,[5],up-regulating the protein and mRNA levels of E-cadherin
same,Snail protein expression,[6],down-regulating Snail and vimentin expression in a dose-dependent manner
same,reduction of Snail expression,[7]; 5 μM,7.03%
same,reduction of Snail expression,[7]; 10 μM,15.88%
same,reduction of Snail expression,[7]; 20 μM,27.14%
same,cytotoxic effects,MGC803,exhibits cytotoxic effects
